Source: patent publication US20140163095A1, “USE OF ERIBULIN IN THE TREATMENT OF BREAST CANCER” (priority 2012, published 2014)
Marks after values point to notes of the source that are not given here.

Experiments:
[1] = test system: locally recurrent or metastatic HER2 negative breast cancer; experiment: Phase II clinical trial of eribulin mesylate as first-line treatment (Part 2, additional data); type: in vivo, human
Excerpt: This example provides additional data obtained from the study described above in Example 2. The baseline demographics and characteristics of patients in the study are as set forth below in Table 6.

[2] = test system: locally recurrent or metastatic HER2 negative breast cancer; experiment: Phase II clinical trial of eribulin mesylate as first-line treatment (Part 1); type: in vivo, human; details: for DOR (duration of response), Median months (95% CI) / TTR (time to first response), Median months (95% CI): 13 responders
Method: A multi-center, single-arm, phase II clinical trial of eribulin mesylate was performed to evaluate the objective response rate (ORR) (according to RECIST v1.1) to first-line treatment with single-agent eribulin mesylate in subjects with locally recurrent or metastatic HER2 negative breast cancer. Secondary objectives included the safety and tolerability of eribulin mesylate, time to first response, duration of response (DOR), and progression free survival (PFS).
Patients were excluded from the study if they had inflammatory breast cancer or had received prior chemotherapy, biologic therapy, or investigational therapy for locally recurrent or metastatic breast cancer (patients who received prior endocrine therapy were permitted).
HER2 status was determined by either fluorescence in situ hybridization (FISH) or 0 or 1+ by immunohistochemical (IHC) staining. Subjects with an HER2:FISH ratio of 1.8:2.2 were eligible, consistent with ASCO/CAP guidelines (Wolff et al., J. Clin. Oncol. 25:118-145, 2007).

[3] = test system: locally advanced or metastatic breast cancer; experiment: Phase III clinical trial comparing eribulin mesylate and capecitabine; details: for overall survival as compared to capecitabine: FIG. 6
Method: A global, randomized, open-label, two-parallel-arm, phase III clinical trial of eribulin (eribulin mesylate) and capecitabine was performed.
This study randomized 1102 patients who had up to three prior chemotherapy regimens, and no more than two prior regimens for advanced and/or metastatic disease. The prior regimens must have included an anthracycline and a taxane, either in the (neo) adjuvant setting or for locally advanced or metastatic disease. Patients must have had documented evidence of progression during or after their most recent anti-cancer therapy. […] Patients were randomized to receive either eribulin mesylate as an intravenous (IV) infusion of 1.4 mg/m^2 over 2-5 minutes on days 1 and 8 every 21 days or capecitabine as an oral administration of 2.5 g/m^2/day administered twice daily in two equal doses on days 1 to 14 every 21 days.
This study was designed to have co-primary endpoints, overall survival (OS) and progression free survival (PFS), with alpha spending 0.04 and 0.01, respectively.
Progression events (disease progression determined by Response Evaluation Criteria in Solid Tumors [RECIST, version 1.0]) were categorized as: (i) emergence of a new lesion/metastasis, defined here as a lesion identified at progression that had not been previously reported, (ii) increase in size of an existing (previously reported) lesion (target or non-target), and (iii) other PFS event, e.g., death, clinical progression, or censoring. Investigator review of disease progression was used as the primary analysis for these investigations. Where progression was determined by investigator review, no further scans were performed, leading to informative censoring of independent review data (approximately 20%). The number of new metastases observed by independent review was considered an under-estimate due to this considerable informative censoring. OS and PFS were compared between treatment arms using two-sided, stratified (geographic region and HER2 status) log-rank tests. The correlation between progression events and OS was investigated by Cox regression, incorporating the event as a time-dependent covariate. New metastasis-free survival, defined as time from randomization to death or progression due to appearance of a new metastasis (whichever occurs earlier), was also analyzed.

[4] = ER−/PR−/HER2−, n 2, CI not available
[5] = All Subjects, listed as eribulin
[6] = of patients with any new metastasis

## C=C1C[C@@H]2CC[C@@]34C[C@H]5O[C@H]6[C@@H](O3)[C@H]3O[C@H](CC[C@@H]3O[C@H]6[C@H]5O4)CC(=O)C[C@@H]3[C@@H](OC)[C@@H](C[C@H](O)CN)O[C@H]3C[C@H]3O[C@@H](CC[C@@H]1O2)C[C@@H](C)C3=C.CS(=O)(=O)O [Eribulin, 11,15:18,21:24,28-Triepoxy-7,9-ethano-12,15-methano-9H,15H-furo[3,2-i]furo[2′,3′:5,6]pyrano[4,3-b][1,4]dioxacyclopentacosin-5(4H)-one, 2-[(2S)-3-amino-2-hydroxypropyl]hexacosahydro-3-methoxy-26-methyl-20,27-bis(methylene)-, (2R,3R,3aS,7R,8aS,9S,10aR,11S,12R,13aR,13bS,15S,18S,21S,24S,26R,28R,29aS)-methanesulfonate (salt)]
[1]; ALL, 16 responders
  DOR (duration of response), Median months (95% CI): 5.8 (4.7-10.6) months
  TTR (time to first response), Median months (95% CI): 1.4 (1.2-2.7) months
[1]; ALL, 16 responders, listed as eribulin
  TTR (time to first response), Median months (95% CI): 1.4 months
[1]; ALL, N 56
  PFS, Median months (95% CI): 6.8 (4.4-7.6) months
[1]; ALL, N 56, listed as eribulin
  PFS, Median months (95% CI): 6.8 months
[1]; ALL, N = 56
  Clinical benefit rate (CR + PR + ≧6 months SD): 29 (51.8) n (%)
  Complete response (CR): 0 n (%)
  Disease control rate (CR + PR + SD): 42 (75.0) n (%)
  Not evaluable/unknown (response category): 3 (5.4) n (%)
  Objective response rate (ORR): 16 (28.6) n (%)
  Partial response (PR): 16 (28.6) n (%)
  Progressive disease (PD): 11 (19.6) n (%)
[1]; ER+ subgroup
  ORR: 34.1%
  disease control rate: 85.4%
[1]; ER+, n 14
  DOR, Median months (95% CI): 7.4 (4.6-27.5) months
  TTR, Median months (95% CI): 2.0 (1.3-2.7) months
[1]; ER+, n 41
  PFS, Median months (95% CI): 7.4 (6.1-11.9) months
[1]; ER+, n 41, listed as eribulin
  PFS, Median months (95% CI): 7.4 months
[1]; ER+, n = 41
  Clinical benefit rate (CR + PR + ≧6 months SD): 26 (63.4) n (%)
  Complete response (CR): 0 n (%)
  Disease control rate (CR + PR + SD): 35 (85.4) n (%)
  Not evaluable/unknown (response category): 1 (2.4) n (%)
  Objective response rate (ORR): 14 (34.1) n (%)
  Partial response (PR): 14 (34.1) n (%)
  Progressive disease (PD): 5 (12.2) n (%)
[1]; [4]
  DOR, Median months: 5.2* months
  TTR, Median months: 1.1* months
[1]; ER−/PR−/HER2−, n 12
  PFS, Median months (95% CI): 3.4 (1.2-6.8) months
[1]; FIG. 12, in words
  sum of target lesion diameters from baseline to postbaseline nadir: majority of patients experienced a decrease
[1]; Triple negative (ER−/PR−/HER2−), n = 12
  Objective response rate (ORR): 2 (16.1) n (%)
[1]; Triple negative, n = 12
  Clinical benefit rate (CR + PR + ≧6 months SD): 3 (25.0) n (%)
  Complete response (CR): 0 n (%)
  Disease control rate (CR + PR + SD): 6 (50.0) n (%)
  Not evaluable/unknown (response category): 1 (8.3) n (%)
  Partial response (PR): 2 (16.7) n (%)
  Progressive disease (PD): 5 (41.7) n (%)
[1]; all patients (16/56)
  ORR: 28.6%
[1]; patients who did not receive prior A/T
  median PFS: 5.7 months
[1]; patients who had received prior A/T
  median PFS: 5.9 months
[1]; patients with prior A/T (15/33)
  clinical benefit rate (CBR): 45.5%
[1]; patients with prior neo/adjuvant anthracyclines and/or taxanes (A/T) (9/33)
  ORR: 27.3%
[2]; All Subjects
  DOR (duration of response), Median months (95% CI): 7.4 (3.29, NE) months
  TTR (time to first response), Median months (95% CI): 1.4 (1.31, 2.69) months
[2]; [5]
  DOR (duration of response), Median months (95% CI): 7.4 months
  TTR (time to first response), Median months (95% CI): 1.4 months
[2]; All Subjects, N 48
  PFS, Median months (95% CI): 5.9 (3.48, 7.39) months
[2]; All Subjects, N 48, listed as eribulin
  PFS, Median months (95% CI): 5.9 months
[2]; All, N = 48
  Clinical benefit rate (CR + PR + durable SD): 22 (45.8) n (%)
  Complete response (CR): 0 n (%)
  Disease control rate (CR + PR + SD): 36 (75.0) n (%)
  Not evaluable/unknown (response category): 1 (2.1) n (%)
  Objective response rate (ORR): 13 (27.1) n (%)
  Partial response (PR): 13 (27.1) n (%)
  Progressive disease (PD): 11 (22.9) n (%)
[2]; ER+ Subjects, N 10
  DOR, Median months (95% CI): 7.4 (3.29, NE) months
  TTR, Median months (95% CI): 1.4 (1.22, 2.66) months
[2]; ER+ Subjects, N 35
  PFS, Median months (95% CI): 6.7 (4.14, 8.54) months
[2]; ER+, N = 35
  Clinical benefit rate (CR + PR + durable SD): 19 (54.3) n (%)
  Complete response (CR): 0 n (%)
  Disease control rate (CR + PR + SD): 29 (82.9) n (%)
  Not evaluable/unknown (response category): 0 n (%)
  Objective response rate (ORR): 10 (28.6) n (%)
  Partial response (PR): 10 (28.6) n (%)
  Progressive disease (PD): 6 (17.1) n (%)
[2]; FIG. 10, in words
  sum of target lesion diameters from baseline to post-baseline nadir: majority of patients experienced a decrease
[2]; Triple Negative (ER−/PR−/HER2−), N = 10
  Objective response rate (ORR): 3 (30.0) n (%)
[2]; Triple Negative Subjects, N 3
  TTR, Median months (95% CI): 2.9 (1.15, 5.59) months
[2]; Triple Negative Subjects, N 10
  PFS, Median months (95% CI): 4.7 (1.05, NE) months
[2]; Triple Negative, N = 10
  Clinical benefit rate (CR + PR + durable SD): 3 (30.0) n (%)
  Complete response (CR): 0 n (%)
  Disease control rate (CR + PR + SD): 6 (60.0) n (%)
  Not evaluable/unknown (response category): 1 (10.0) n (%)
  Partial response (PR): 3 (30.0) n (%)
  Progressive disease (PD): 3 (30.0) n (%)
[2]; all patients (13/48)
  Objective response rate (ORR): 27.1%
[3]; FIG. 5, in words
  time to a new metastasis observed in the CNS, lungs, or liver: trend favouring eribulin over capecitabine
[3]; HER2 negative patients, in words
  overall survival as compared to capecitabine: increased overall survival
[3]; all randomized patients
  median overall survival (OS): 15.9 months
  median progression-free survival (PFS): 4.1 months
[3]; breast cancers not characterized as triple negative, FIG. 7B, in words
  median survival as compared to capecitabine: similar
[3]; count
  New metastasis site: Bone, patients: 60
  New metastasis site: Breast, patients: 12
  New metastasis site: CNS (brain/spine), patients: 13
  New metastasis site: Chest wall, patients: 15
  New metastasis site: Liver, patients: 71
  New metastasis site: Lung, patients: 59
  New metastasis site: Lymph nodes, patients: 64
  New metastasis site: Other, patients: 30
  New metastasis site: Skin, patients: 23
[3]; count, investigator review, intent-to-treat
  Number of patients with any new metastasis observed: 291
[3]; eribulin versus capecitabine, 95% CI 0.77, 1.00
  hazard ratio, overall survival: 0.88
[3]; eribulin versus capecitabine, 95% CI 0.93, 1.25
  hazard ratio, progression-free survival: 1.08
[3]; in words
  1-year OS relative to capecitabine: statistically significant improvement
[3]; independent review
  new metastasis-free survival, median difference in favour of eribulin: 0.3 months
[3]; investigator review
  new metastasis-free survival, median difference in favour of eribulin: 0.6 months
  patients with progression due to a new metastasis: 48.9%
  patients with progression due to increase in the size of a pre-existing lesion: 26.5%
  patients with progression due to other reasons such as death and clinical progression: 24.5%
[3]; investigator review, intent-to-treat
  patients with any new metastasis observed, percentage: (52.5) %
[3]; investigator review, eribulin versus capecitabine
  HR, new metastasis-free survival: 0.90
[3]; [6]
  New metastasis site: Bone, percentage: (20.6) %
  New metastasis site: Breast, percentage: (4.1) %
  New metastasis site: CNS (brain/spine), percentage: (4.5) %
  New metastasis site: Chest wall, percentage: (5.2) %
  New metastasis site: Liver, percentage: (24.4) %
  New metastasis site: Lung, percentage: (20.3) %
  New metastasis site: Lymph nodes, percentage: (22.0) %
  New metastasis site: Other, percentage: (10.3) %
  New metastasis site: Skin, percentage: (7.9) %
[3]; patients whose disease progressed due to a new metastasis
  median OS longer with eribulin compared with capecitabine: 2.6 months
[3]; patients whose disease progressed due to other events
  Median OS: 16.7 months
[3]; patients with progression due to new metastasis
  Median OS: 15.5 months
[3]; patients with progression due to pre-existing lesion
  Median OS: 17.4 months
[3]; progression due to new metastasis, eribulin versus capecitabine
  HR, overall survival: 0.81
[3]; progression due to other events, eribulin versus capecitabine
  HR, overall survival: 0.78
[3]; progression due to pre-existing lesion, eribulin versus capecitabine
  HR, overall survival: 1.13
[3]; triple negative breast cancers, FIG. 7A, in words
  median survival as compared to capecitabine: statistically significant increase
[3]; triple negative patients, in words
  overall survival as compared to capecitabine: most significant improvement
